Like-named read-outs stand apart in the source and are kept apart here.
Columns and labels:
[1] = molecular target: FGFR1 (UP) (Homo sapiens (Human), UniProt P11362); test: FGFR Enzymatic Assay, FGFR1 un-phosphorylated
[2] = molecular target: FGFR3 (UP) (Homo sapiens (Human), UniProt P22607); test: FGFR Enzymatic Assay, FGFR3 un-phosphorylated
Experimental: (§1) The inhibitor potency of the exemplified compounds was determined in an enzyme discontinuous assay that measures peptide phosphorylation using FRET measurements to detect product formation. Inhibitors were serially diluted in DMSO and a volume of 0.2 μL was transferred to the wells of a 384-well plate. For the isoforms of FGFR (−1, −2, −3 wild-type and mutant isoforms, −4) including phosphorylated (P) and un-phosphorylated (UP) proteins, a 5 μL/well volume of enzyme diluted in assay buffer (50 mM HEPES, 10 mM MgCl2, 1 mM EGTA, 0.01% Tween-20, 5 mM DTT, pH 7.5) was added to the plate and pre-incubated with inhibitor for 5 to 15 minutes at ambient temperature. Appropriate controls (enzyme blank and enzyme with no inhibitor) were included on the plate. The reaction was initiated by the addition of a 5 μL/well volume containing both biotinylated [sequence] […] The plate was allowed to equilibrate for −10 minutes at ambient temperature before scanning on a PheraStar plate reader (BMG Labtech) instrument.
(§2) Either GraphPad prism or XLfit was used to analyze the data. The IC50 values were derived by fitting the data to a four parameter logistic equation producing a sigmoidal dose-response curve with a variable Hill coefficient. Prism equation: Y=Bottom+(Top−Bottom)/(1+10^((LogIC50−X)*Hill slope)); XLfit equation: Y=(A+((B−A)/(1+((X/C)^D)))) where X is the logarithm of inhibitor concentration and Y is the response.

[3] = molecular target: FGFR2 (UP) (Homo sapiens (Human), UniProt P21802); test: FGFR Enzymatic Assay, FGFR2 un-phosphorylated
Experimental: as §1, §2

[4] = molecular target: ALK2 (aa 147-end) (Homo sapiens (Human), UniProt Q04771); test: ALK2 HTRF Assay; assay type: biochemical
Chain of ALK2 (aa 147-end) (Q04771 147-509): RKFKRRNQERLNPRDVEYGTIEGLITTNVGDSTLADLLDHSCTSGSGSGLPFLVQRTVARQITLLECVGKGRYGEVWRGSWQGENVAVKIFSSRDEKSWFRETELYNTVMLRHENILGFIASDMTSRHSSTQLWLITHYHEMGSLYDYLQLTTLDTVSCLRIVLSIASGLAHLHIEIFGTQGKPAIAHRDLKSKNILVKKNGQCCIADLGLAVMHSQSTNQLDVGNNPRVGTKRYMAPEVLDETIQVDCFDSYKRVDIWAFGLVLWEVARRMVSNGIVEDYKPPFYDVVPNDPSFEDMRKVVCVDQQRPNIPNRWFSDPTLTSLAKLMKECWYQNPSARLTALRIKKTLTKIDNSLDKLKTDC
Experimental: The enzymatic assays were conducted in white 384-well polystyrene plates in a final volume of 8 μL. The inhibitors were serially diluted in DMSO and added to the plate wells prior to addition of the other reaction components. The assays were carried out at 25° C. in the assay buffer (50 mM HEPES, pH 7.1, 10% Glycerol, 0.01% Brij50, 10 mM MgCl2, 1 mM EGTA, 5 mM DTT, and 0.01% BSA), containing 50 nM LANCE Ultra ULight™-DNA Topoisomerase 2-alpha peptide (Perkin Elmer TRF0130), and 3 uM, 100 uM or 1 mM ATP (as specified). […] The reaction was read on a PHERAstar FS plate reader (BMG Labtech). IC50 determination was performed by fitting percent control activity versus the log of the inhibitor concentration using the IDBS XLFit and GraphPad Prism 5.0 software.

[5] = molecular target: ALK2 (Homo sapiens (Human), UniProt Q04771); test: ALK2 Cellular Assay (phospho SMAD1 HTRF, BMP-7 stimulated HeLa cells); assay type: cell-based; details: HeLa cells, 200 ng/ml BMP-7, Phospho SMAD1 (S463/S465) HTRF; read-out: ALK2 Cellular Assay PSMAD
Chain of ALK2 (Q04771 21-509): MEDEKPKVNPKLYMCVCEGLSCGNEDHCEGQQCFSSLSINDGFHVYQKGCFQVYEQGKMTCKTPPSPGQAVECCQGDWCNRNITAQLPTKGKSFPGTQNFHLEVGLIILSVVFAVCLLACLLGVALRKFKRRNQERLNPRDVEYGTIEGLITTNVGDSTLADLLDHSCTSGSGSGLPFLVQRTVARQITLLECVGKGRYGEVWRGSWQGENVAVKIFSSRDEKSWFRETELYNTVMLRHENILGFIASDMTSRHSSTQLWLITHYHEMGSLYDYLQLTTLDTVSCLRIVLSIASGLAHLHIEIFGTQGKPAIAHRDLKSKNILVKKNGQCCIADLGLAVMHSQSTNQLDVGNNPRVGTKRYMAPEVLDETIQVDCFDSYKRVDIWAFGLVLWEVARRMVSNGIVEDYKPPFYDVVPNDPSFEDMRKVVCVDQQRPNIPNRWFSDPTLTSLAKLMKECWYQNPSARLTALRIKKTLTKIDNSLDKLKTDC
Experimental: HeLa cells were cultured in MEM media with 10% FBS. […] HeLa cells were plated in 96 well flat bottomed plate at 50,000 cells per well and incubated overnight. Next day, media was removed and 50 μL of fresh complete media was added. 5 μL compound was added to cells (3 μM final concentration at highest) and incubated for 60 min at 37° C. 200 ng/ml BMP-7 was added and incubated for 30 min at 37° C. After incubation, the media was removed, washed 2×PBS, and proceeded with HTRF kit according to Cisbio HTRF kit instructions for measuring the Phospho SMAD1 (S463/S465). Finally, both the donor and acceptor were added into 384 well plates and incubated at room temperature overnight and the HTRF signal was measured via Pherastar the next day.

[6] = system: RT112 cells; test: Luminescent Viability Assay (LVA, FGFR3); assay type: cell-based; details: Homo sapiens, RT-112, 72 h, 3 days, CellTiter-Glo
Experimental: RT112 cells were purchased from ATCC (Manassas, Va.) and maintained in RPMI, 10% FBS (Gibco/Life Technologies). To measure the effect of test compounds on the viability of cells, the cells were plated with RPMI 10% FBS (5×10^3 cells/well/in 50 μL) into black 96-well Greiner polystyrene in the presence or absence of 50 μl of a concentration range of test compounds. After 3 days, 100 μl of CellTiter-Glo Reagent (Promega) was added. Luminescence was read with a TopCount (PerkinElmer). IC50 determination was performed by fitting the curve of percent inhibition versus the log of the inhibitor concentration using the GraphPad Prism 5.0 software.

[7] = molecular target: FGFR2 (P) (Homo sapiens (Human), UniProt P21802); test: FGFR Enzymatic Assay, FGFR2 phosphorylated; details: read-out: FGFR2 (P) IC50; phosphorylated enzyme, ATP near or below Km
Chain of FGFR2 (P) (P21802 22-821): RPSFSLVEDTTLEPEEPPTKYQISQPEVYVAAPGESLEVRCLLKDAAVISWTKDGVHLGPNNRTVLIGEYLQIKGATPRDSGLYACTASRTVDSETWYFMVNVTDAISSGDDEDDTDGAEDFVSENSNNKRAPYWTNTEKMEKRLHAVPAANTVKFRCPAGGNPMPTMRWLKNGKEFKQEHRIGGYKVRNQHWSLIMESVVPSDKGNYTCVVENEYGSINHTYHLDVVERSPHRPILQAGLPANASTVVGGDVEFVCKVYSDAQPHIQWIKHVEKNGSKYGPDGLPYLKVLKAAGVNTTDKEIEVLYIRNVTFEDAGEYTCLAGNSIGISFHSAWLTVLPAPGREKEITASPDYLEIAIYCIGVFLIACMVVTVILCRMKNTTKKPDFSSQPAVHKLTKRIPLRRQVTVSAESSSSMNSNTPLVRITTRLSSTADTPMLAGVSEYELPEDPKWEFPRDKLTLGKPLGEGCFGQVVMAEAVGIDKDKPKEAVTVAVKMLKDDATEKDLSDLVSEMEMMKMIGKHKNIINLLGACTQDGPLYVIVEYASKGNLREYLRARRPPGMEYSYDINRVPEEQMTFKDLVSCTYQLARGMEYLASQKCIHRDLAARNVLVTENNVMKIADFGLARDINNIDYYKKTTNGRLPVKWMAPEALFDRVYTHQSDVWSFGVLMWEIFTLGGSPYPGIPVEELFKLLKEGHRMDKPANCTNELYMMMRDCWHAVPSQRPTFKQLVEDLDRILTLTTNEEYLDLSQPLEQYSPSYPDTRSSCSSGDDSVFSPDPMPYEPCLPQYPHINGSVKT
Experimental: as §1, §2

[8] = read-out: ALK2 3 μM IC50, 3 uM ATP
[9] = read-out: ALK2 100 μM IC50, 100 uM ATP
[10] = read-out: FGFR3 (UP) IC50, un-phosphorylated enzyme, ATP near or below Km
[11] = read-out: FGFR1 (UP) IC50, un-phosphorylated enzyme, ATP near or below Km

Chain of FGFR3 (UP) (P22607 23-806): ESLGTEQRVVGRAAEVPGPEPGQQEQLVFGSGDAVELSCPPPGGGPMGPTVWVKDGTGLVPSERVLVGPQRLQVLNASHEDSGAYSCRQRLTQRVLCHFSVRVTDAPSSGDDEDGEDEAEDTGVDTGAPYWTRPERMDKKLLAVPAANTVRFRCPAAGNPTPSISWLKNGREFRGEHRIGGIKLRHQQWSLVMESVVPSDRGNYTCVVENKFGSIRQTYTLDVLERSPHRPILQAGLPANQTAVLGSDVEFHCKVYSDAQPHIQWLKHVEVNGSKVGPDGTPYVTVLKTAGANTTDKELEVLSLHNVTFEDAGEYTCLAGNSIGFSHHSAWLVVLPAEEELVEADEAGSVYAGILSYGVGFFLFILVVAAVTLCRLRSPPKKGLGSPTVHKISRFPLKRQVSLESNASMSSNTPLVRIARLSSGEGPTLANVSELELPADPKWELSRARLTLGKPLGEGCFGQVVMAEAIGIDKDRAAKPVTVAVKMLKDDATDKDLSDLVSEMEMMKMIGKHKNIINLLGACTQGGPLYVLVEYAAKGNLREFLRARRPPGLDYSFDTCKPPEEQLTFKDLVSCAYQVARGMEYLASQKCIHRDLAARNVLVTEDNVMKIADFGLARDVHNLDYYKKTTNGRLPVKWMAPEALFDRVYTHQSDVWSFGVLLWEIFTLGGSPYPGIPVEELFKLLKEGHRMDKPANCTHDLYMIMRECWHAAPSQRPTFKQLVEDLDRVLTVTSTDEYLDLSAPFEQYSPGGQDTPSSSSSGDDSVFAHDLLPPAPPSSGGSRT
Chain of FGFR2 (UP) (P21802 22-821): as the sequence (P21802 22-821) above
Chain of FGFR1 (UP) (P11362 22-822): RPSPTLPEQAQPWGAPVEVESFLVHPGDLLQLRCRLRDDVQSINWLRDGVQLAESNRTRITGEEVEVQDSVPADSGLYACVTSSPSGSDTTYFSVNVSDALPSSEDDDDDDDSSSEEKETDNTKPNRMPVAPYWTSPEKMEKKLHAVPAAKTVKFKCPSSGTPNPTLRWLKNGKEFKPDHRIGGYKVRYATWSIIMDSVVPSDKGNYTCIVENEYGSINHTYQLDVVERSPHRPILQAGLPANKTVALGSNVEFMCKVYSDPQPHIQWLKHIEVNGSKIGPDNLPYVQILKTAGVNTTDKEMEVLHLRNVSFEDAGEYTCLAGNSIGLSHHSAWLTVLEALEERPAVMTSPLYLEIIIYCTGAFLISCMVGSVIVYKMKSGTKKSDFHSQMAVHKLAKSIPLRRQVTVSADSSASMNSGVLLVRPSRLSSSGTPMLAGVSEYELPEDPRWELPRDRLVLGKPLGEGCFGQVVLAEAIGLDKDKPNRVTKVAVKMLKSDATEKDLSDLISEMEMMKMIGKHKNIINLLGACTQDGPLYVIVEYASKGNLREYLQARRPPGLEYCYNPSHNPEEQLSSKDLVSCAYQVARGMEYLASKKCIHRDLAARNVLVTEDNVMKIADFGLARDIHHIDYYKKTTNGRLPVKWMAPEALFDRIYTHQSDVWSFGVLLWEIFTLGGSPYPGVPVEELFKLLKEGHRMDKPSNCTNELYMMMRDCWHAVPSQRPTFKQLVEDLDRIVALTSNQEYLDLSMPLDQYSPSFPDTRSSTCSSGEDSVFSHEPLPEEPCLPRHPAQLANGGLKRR

SMILES	IC50 [2]	IC50 [3]	IC50 [4, 8]	IC50 ([4]; read-out: ALK2 1 mM IC50, 1 mM ATP)	IC50 [5]	IC50 [4, 9]	IC50 [1]	IC50 [6]	IC50 [2, 10]	IC50 ([4]; ALK2 3 μM IC50, 3 uM ATP)	IC50 ([4]; ALK2 100 μM IC50, 100 uM ATP)	IC50 [7]	IC50 [1, 11]
CC(C)C(=O)N1CCC(n2cc(-c3n[nH]c4cnc(N5C6CCC5C(=O)N(C)C6)nc34)cn2)CC1 (stereo not shown) [Example 57, 8-(3-(1-(1-Isobutyrylpiperidin-4-yl)-1H-pyrazol-4-yl)-1H-pyrazolo[4,3-d]pyrimidin-5-yl)-3-methyl-3,8-diazabicyclo[3.2.1]octan-2-one]	–	–	–	–	–	–	100 to 500 nM	500 to 2000 nM	< 100 nM	500 to 2000 nM	500 to 2000 nM	< 100 nM	–
CN1CC2CCC(C1=O)N2c1ncc2[nH]nc(-c3cnn(Cc4ccncc4)c3)c2n1 (stereo not shown) [Example 59, 3-Methyl-8-(3-(1-(pyridin-4-ylmethyl)-1H-pyrazol-4-yl)-1H-pyrazolo[4,3-d]pyrimidin-5-yl)-3,8-diazabicyclo[3.2.1]octan-2-one]	–	–	–	–	–	–	100 to 500 nM	500 to 2000 nM	< 100 nM	500 to 2000 nM	500 to 2000 nM	< 100 nM	–
CN1CCN(c2ccc(-c3n[nH]c4cnc(N5C6CCC5C(=O)N(C)C6)nc34)cn2)CC1 (stereo not shown) [Example 60, 3-Methyl-8-(3-(6-(4-methylpiperazin-1-yl)pyridin-3-yl)-1H-pyrazolo[4,3-d]pyrimidin-5-yl)-3,8-diazabicyclo[3.2.1]octan-2-one]	–	–	< 100 nM	–	–	–	–	100 to 500 nM	< 100 nM	–	500 to 2000 nM	< 100 nM	< 100 nM
CN1CC2CCC(C1=O)N2c1ncc2[nH]nc(-c3cnn(-c4ccc5nccn5c4)c3)c2n1 (stereo not shown) [Example 75, 8-(3-(1-(Imidazo[1,2-a]pyridin-6-yl)-1H-pyrazol-4-yl)-1H-pyrazolo[4,3-d]pyrimidin-5-yl)-3-methyl-3,8-diazabicyclo[3.2.1]octan-2-one]	–	–	–	–	–	–	–	500 to 2000 nM	< 100 nM	500 to 2000 nM	500 to 2000 nM	< 100 nM	< 100 nM

The next lines start with results.

IC50 [2]	IC50 [3]	IC50 [4, 8]	IC50 ([4]; read-out: ALK2 1 mM IC50, 1 mM ATP)	IC50 [5]	IC50 [4, 9]	SMILES	IC50 [1]	IC50 [6]	IC50 [2, 10]	IC50 ([4]; ALK2 3 μM IC50, 3 uM ATP)	IC50 ([4]; ALK2 100 μM IC50, 100 uM ATP)	IC50 [7]	IC50 [1, 11]
100 to 500 nM	100 to 500 nM	< 100 nM	> 2000 nM	–	–	CNC(=O)c1ccc(-c2n[nH]c3cnc(N4[C@H](C)CN(C(=O)OC)C[C@@H]4C)nc23)cc1 [Example 26, Methyl (3R,5S)-3,5-dimethyl-4-(3-(4-(methylcarbamoyl)phenyl)-1H-pyrazolo[4,3-d]pyrimidin-5-yl)piperazine-1-carboxylate]	500 to 2000 nM	–	–	–	–	–	–
–	100 to 500 nM	< 100 nM	–	< 100 nM	< 100 nM	COC(=O)N1C[C@@H](C)N(c2ncc3[nH]nc(-c4ccc(C5CCN(CCO)C5)cc4)c3n2)[C@@H](C)C1 (stereo partly drawn) [Example 28, Methyl (3R,5S)-4-(3-(4-(1-(2-hydroxyethyl)pyrrolidin-3-yl)phenyl)-1H-pyrazolo[4,3-d]pyrimidin-5-yl)-3,5-dimethylpiperazine-1-carboxylate]	500 to 2000 nM	–	–	–	–	–	–
–	500 to 2000 nM	< 100 nM	–	< 100 nM	< 100 nM	COC(=O)N1C[C@@H](C)N(c2ncc3[nH]nc(-c4ccc(N5CCN(C(C)CO)CC5)cc4)c3n2)[C@@H](C)C1 (stereo partly drawn) [Example 29, Methyl (3R,5S)-4-(3-(4-(4-(1-hydroxypropan-2-yl)piperazin-1-yl)phenyl)-1H-pyrazolo[4,3-d]pyrimidin-5-yl)-3,5-dimethylpiperazine-1-carboxylate]	–	–	–	–	–	–	–
–	100 to 500 nM	< 100 nM	–	100 to 500 nM	< 100 nM	COC(=O)N1C[C@@H](C)N(c2ncc3[nH]nc(-c4ccc(N5CCN(C6CCOCC6)CC5)cc4)c3n2)[C@@H](C)C1 [Example 30, Methyl (3R,5S)-3,5-dimethyl-4-(3-(4-(4-(tetrahydro-2H-pyran-4-yl)piperazin-1-yl)phenyl)-1H-pyrazolo[4,3-d]pyrimidin-5-yl)piperazine-1-carboxylate]	–	–	–	–	–	–	–
–	100 to 500 nM	< 100 nM	–	< 100 nM	< 100 nM	COC(=O)N1C[C@@H](C)N(c2ncc3[nH]nc(-c4ccc(N5CCN(C(C)(C)C(=O)O)CC5)cc4)c3n2)[C@@H](C)C1 [Example 31, 2-(4-(4-(5-((2R,6S)-4-(Methoxycarbonyl)-2,6-dimethylpiperazin-1-yl)-1H-pyrazolo[4,3-d]pyrimidin-3-yl)phenyl)piperazin-1-yl)-2-methylpropanoic acid]	–	–	–	–	–	–	–
